Entries after “also recorded” stand apart in the source; their conditions may differ. Like-named read-outs stand apart in the source and are kept apart here.
How the values were obtained:
T47D cells [1] = assay: Flow cytometry cell cycle analysis; type: cell-based
T47D cells [2] = assay: Annexin V apoptosis assay; conditions: 48 hours
MCF7 cells = assay: Growth inhibition assay, 5 days, normalized to DMSO; type: cell-based; conditions: for change of GI50 by CDK6 overexpression: CDK6 overexpressing vs parental MCF7 (printed MCG-7); for change of GI50 by miR-432 overexpression: parental MCF7 overexpressing miR-432 (FIG. 10B)
Description: (§1) Subsequently, cell growth was quantified and normalized to DMSO treated control.

[3] = system: CDK6 protein in T47D cells; assay: Western blot of CDK6 protein expression; type: cell-based; conditions: palbociclib exposure up to 6 days
Procedure: Cells were lysed with RIPA buffer (10 mM Tris, pH 7.5, 1% Nonidet-P40, 2 mM Na2EDTA, 150 mM NaCl) plus protease inhibitors (Calbiochem) and protein estimation was performed by Pierce assay. Gel electrophoresis was performed with Bis-Tris 4-12% (v/v) polyacrylamide gradient gels (ThermoFisher). Samples were transferred onto Immobilin-P PVDF membrane (EMD Millipore), and probed with primary antibodies against either CDK1, CDK2, CDK4, CDK6, Cyclin D1, Cyclin D3, Cyclin E, p2′7, SMAD3, SMAD4, TGFβ, TGFβR3 (Santa Cruz), pRB (Cell signaling) or actin (Genescript). Goat anti-rabbit or goat anti-mouse HRP-linked secondary antibodies (1:1000; Dako) and ECL reagent (Perkin Elmer) were used for protein detection. Cytokines were analyzed using the Human Cytokine Array Kit performed per manufactures instructions (R&D Systems).

T47D cells [4] = assay: cells; type: cell-based; conditions: for CC50: Homo sapiens, T47D
Procedure: Cells were incubated for 14 to 21 days to allow colony formation. Colonies were fixed and permeabilised using Carnoy's fixative (75% methanol, 25% Acetic acid) and stained with 1% crystal violet and counted.
Cells stably expressing shRNA, miRNA or cDNA were generated using lentiviral transfection, as previously described using the pLKO.1 or pLEX-307 backbone (Moffat, J. et al., Cell 124: 1283-1298 (2006)). Multiple stable cell lines were generated for each protein knockdown; shRNA sequences were obtained from the RNAi Consortium database (Moffat, J. et al., Cell 124: 1283-1298 (2006)). CDK6 GeneArt cDNA sequences (K43M (Hu, M. G. et al., Blood 117: 6120-6131 (2011)), S178P (Bockstaele, L. et al., Mol. Cell Biol. 29: 4188-4200 (2009)) and R31C (Hu, M. G. et al., Blood 117: 6120-6131 (2011)) were purchased from ThermoFisher and cloned into the pLEX-307 backbone. For miRNA overexpression, ˜500 bp of DNA encompassing each miRNA sequence was PCR purified and cloned into the pLEX-307 backbone, miRNA mimics were purchased and transfected into cells as a positive control for miRNA detection. Protein expression/miRNA expression/knockdown was confirmed after 5 days of selection in puromycin (1 μg/ml for both T47D and MCF7).
CDK6 by CRIPSR/Cas9 was performed as previously described (Sanjana, N. E. et al., Nat. Meth 11: 783-784 (2014)). The following sgRNA sequence was cloned into the LentiCRIPSR v2 vector-sgCDK6-7 (targeting the 5′UTR): […] (SEQ ID NO: 2). Cells were selected using 1 μg/ml puromycin and protein knockout confirmed after ˜12 days.

[5] = system: palbociclib resistant MCF7 xenografts; assay: Palbociclib resistant MCF7 xenograft with treatment holiday; type: in vivo, mice; conditions: 100 mg/kg/day oral gavage, after 28 days treatment holiday
Procedure: Female nude mice (NCr-Foxn1^NU, Tactonic Laboratories) were maintained and handled in isolators under specific pathogen-free conditions for tissue distribution and efficacy studies in accordance with local guidelines and therapeutic interventions approved by the Animal Care and Use Committee of Dana-Farber Cancer Institute. Mice were implanted with 17β-estradiol pellets (0.36 mg, 90-day release, Innovative Research of America) prior to cell implantation. […] Tumors were measured throughout the experiment and relative tumor volume calculated.

T47D cells [6] = assay: Growth inhibition assay, 5 days, normalized to DMSO; type: cell-based; conditions: for change of GI50 by CDK6 overexpression: CDK6 overexpressing vs parental T47D; for change of GI50 by miR-432 overexpression: parental T47D overexpressing miR-432 (FIG. 10A)
Procedure: as §1
Subsequently, cell growth was quantified and normalized to DMSO treated control. BLISS Synergy/antagonism score was modelled using Combenefit software. FIG. 12C is a graph, wherein T47D parental and resistant cells were treated with escalating dose of galunisertib for 5 days. Subsequently, cell growth was quantified and normalized to DMSO treated control.

[7] = system: GFP-positive parental T47D cells; assay: GFP co-culture resistance transmission assay; conditions: 72 hours co-culture, exosome production inhibited
Procedure: FIG. 11A is a bar graph, wherein cells were treated with either DMSO, 10 μM GW4869 or 10 μM manumycin A for 72 hours prior to exosome harvest and quantification. […] Subsequently, cells were harvested and analyzed by flow cytometry for GFP expression and cell cycle profile.

[8] = system: estrogen receptor positive (ER+) and HER2 negative breast cancer; conditions: patients; previous results; cited from earlier work
[9] = system: parotid cancer harboring CDKN2A/B loss; conditions: one patient; cited from earlier work

For `CC(=O)c1c(C)c2cnc(Nc3ccc(N4CCNCC4)cn3)nc2n(C2CCCC2)c1=O` [palbociclib], the “sub-G1 DNA content compared to control cells” value (T47D cells [1]; CDK6-depleted T47D cells, 100 nM, 24 hours) was “significantly more”, the “cells in the G1 phase of the cell cycle” value (T47D cells [1]; T47D, 100 nM, initial exposure (week 0)) was “more than 90%” and the “cell cycle effect in parental cells” value (T47D cells [1]; parental T47D, 100 nM or 300 nM, persisted for 14 days) was “sustained G1 arrest”. For the same molecule, the “cell cycle arrest on re-challenge” value (T47D cells [1]; resistant cells after 6 weeks in drug-free media, 100 nM for 24 hours) was “indistinguishable from parental cells”, the apoptosis (T47D cells [2]; CDK6 knockdown and knockout T47D cells) was “marked increase” and the “effect on apoptotic fraction” value (T47D cells [2]; shNT-expressing T47D cells) was “no effect”. The “change of GI50 by CDK6 overexpression” value (MCF7 cells) was “significantly increased”, the “change of GI50 by miR-432 overexpression” value (MCF7 cells) was “significantly increased” and the “effect on CDK6 expression” value [3] was “no observable effect”. The CC50 (T47D cells [4]; read-out: LC50, survival after palbociclib treatment, CDK6 knockout T47D cells (sgK6-7)) was 34.2 nM, the CC50 (T47D cells [4]; read-out: LC50, survival after palbociclib treatment, INK4-insensitive CDK6 (R31C) T47D cells) was 632 nM and the CC50 (T47D cells [4]; read-out: LC50, survival after palbociclib treatment, constitutively active CDK6 (S178P) T47D cells) was 269 nM. It also gave a CC50 (T47D cells [4]; read-out: LC50, survival after palbociclib treatment, control T47D cells (sgNT)) of 66.2 nM, a CC50 (T47D cells [4]; read-out: LC50, survival after palbociclib treatment, kinase dead CDK6-expressing T47D cells (K43M)) of 26.6 nM and a CC50 (T47D cells [4]; read-out: LC50, survival after palbociclib treatment, wild-type CDK6 (WT) T47D cells) of 229 nM. For the same molecule, the “survival after palbociclib treatment compared to non-target shRNA control” value (T47D cells [4]; shRNA-mediated CDK6-depleted T47D cells) was “significantly lower survival”, the “tumor burden after re-introduction of treatment” value [5] was “substantial regression of all but 1 tumor; also recorded: marked decrease” and the “change of GI50 by CDK6 overexpression” value (T47D cells [6]) was “significantly increased”. The “change of GI50 by miR-432 overexpression” value (T47D cells [6]) was “significantly increased”.
With `CCCC[C@@H](C)/C=C(C)/C=C(\C)C(=O)NC1=C[C@@](O)(/C=C/C=C/C=C/C(=O)NC2=C(O)CCC2=O)[C@@H]2O[C@@H]2C1=O` [manumycin A] the “G1 population of GFP-positive parental cells co-cultured with resistant cells” value [7] was “significant increase”.
For `N#Cc1ccc(C(c2ccc(C#N)cc2)n2cncn2)cc1` [letrozole], the progression free survival [8] is listed as 14.5 months.
In the case of `O=C(/C=C/c1ccc(/C=C/C(=O)Nc2ccc(C3=NCCN3)cc2)cc1)Nc1ccc(C2=NCCN2)cc1` [GW4869], the “G1 population of GFP-positive parental cells co-cultured with resistant cells” value [7] was “significant increase”.
In the case of `CN(C)C(=O)c1cc2cnc(Nc3ccc(N4CCNCC4)cn3)nc2n1C1CCCC1` [ribociclib], the “change of GI50 by CDK6 overexpression” value (MCF7 cells) was “significantly increased”, the “cross-resistance of palbociclib resistant cells” value (MCF7 cells; palbociclib resistant (100 nM) MCF7 vs parental) was “significantly more resistant” and the “change of GI50 by miR-432 overexpression” value (MCF7 cells) was “significantly increased”. The clinical response [9] was “partial response”, the “change of GI50 by CDK6 overexpression” value (T47D cells [6]) was “significantly increased” and the “cross-resistance of palbociclib resistant cells” value (T47D cells [6]; palbociclib resistant (100 nM) T47D vs parental) was “significantly more resistant”. The “change of GI50 by miR-432 overexpression” value (T47D cells [6]) was “significantly increased”.
In the case of `Cc1cccc(-c2nn3c(c2-c2ccnc4ccc(C(N)=O)cc24)CCC3)n1` [galunisertib], the “effect on palbociclib G1 arrest” value (T47D cells [1]; in combination with palbociclib, T47D, 24 hours) was “prevent G1 arrest”, the “interaction with palbociclib (BLISS synergy/antagonism)” value (T47D cells [6]; combined with palbociclib, parental and resistant T47D cells) was “significantly antagonistic” and the “effect on growth when used alone” value (T47D cells [6]; parental or resistant T47D cells, 5 days) was “no effect”.
